Consider four molecules from US12692396B2, “Fluorescent labeling agent and fluorescent dye” (artience Co., Ltd., priority 2020, dated 2026).

Data set [1] deals with Human epithelium cancer cells A431. The data set can be described thus: Evaluation of visibility of cell (fluorescent microscope). It counts as cell-based. The arrangement: key: P (Pass): Clear; F (Failure): Unclear. The settings on record: A431 cells, labeling agent left one hour. As for the experimental part: <Evaluation of Visibility of Cell>
Human epithelium cancer cells A431 were seeded in a 96-well plate (1×10^4 cells/well). The A431 were cultured for 24 hours using an RPMI 1640 medium to which 10% fetal bovine serum (FBS) and 1% penicillin-streptomycin had been added in an incubator (37° C., 5% CO2-containing Air, humidified environment).
After cultivation, the medium was removed, and the fluorescent labeling agents prepared in Examples 127 to 189 and Comparative Examples 25 to 37 were added thereto and left to stand in the incubator for one hour. Next, these were washed in the RPMI 1640 medium. The dark field images and fluorescent images of the cells were observed using a fluorescent microscope (manufactured by Keyence Corporation, BZ-X800) equipped with an excitation filter for an appropriate wavelength and a fluorescent filter and evaluated based on the following standards.
• P (Pass): Clear • F (Failure): Unclear
The evaluation results of the visibility of the cells labeled with the fluorescent labeling agents 1, 15, 19, 24, 25, 68, and 75 are sequentially shown in FIGS. 2 to 8 (magnification: 10 times, optical uptake time: 1 second).
The evaluation results of the visibility of the cells labeled with the fluorescent labeling agents 42 and 53 are sequentially shown in FIGS. 9 to 10 (magnification: 40 times, optical uptake time: 1 second).
From what has been described above, it has been clarified that the fluorescent labeling agent according to the embodiment of the present invention has excellent characteristics as a fluorescent labeling agent.

Data set [2] has the same test system. Kind of data set: Evaluation of cell toxicity of fluorescent labeling agent (cell counting kit-8, absorbance at 450 nm). It counts as cell-based. The note with it: labeling agent left one hour, absorbance relative to DMSO medium solution regarded as one. The protocol: <Evaluation of Cell Toxicity of Fluorescent Labeling Agent>
Human epithelium cancer cells A431 were seeded in a 96-well plate (1×10^4 cells/well). Next, the A431 were cultured for 24 hours using an RPMI 1640 medium to which 10% fetal bovine serum (FBS) and 1% penicillin-streptomycin had been added in an incubator (37° C., 5% CO2-containing Air, humidified environment). As the RPMI 1640 medium, an RPMI-164-Medium manufactured by Sigma-Aldrich Inc. was used.
After cultivation, the medium was removed, the fluorescent labeling agents prepared in Examples 83 to 123 and Comparative Examples 25 to 37 and an RPMI 1640 medium containing 1% dimethyl sulfoxide (DMSO medium solution) were added thereto. These were left to stand in the incubator for one hour and then washed in the RPMI 1640 medium. 10 μL of a cell counting kit-8 (manufactured by Dojindo Laboratories.) was added to each well and left to stand in the incubator (37° C., 5% CO2-containing Air, humidified environment) for one hour. Next, the absorbance at 450 nm was measured using a plate reader (SPARK, manufactured by Tecan Trading AG).
The relative value of the absorbance of each fluorescent labeling agent when the absorbance of the well to which the DMSO medium solution had been added was regarded as one was calculated and evaluated based on the following standards. […] At the time of calculating the relative value of the absorbance of the fluorescent labeling agent, a value obtained by subtracting the absorbance before the addition of the cell counting kit-8 (manufactured by Dojindo Laboratories.) from the measured absorbance was used.
• P (Pass): 0.8 or more • F (Failure): Less than 0.8 <Evaluation of Fluorescence Intensity of Fluorescent Labeling Agent>
A general note: Tetrazolium assays rely on reduction of a dye to a coloured formazan, in cell work by metabolically active cells.

The test system of another data set is phospholipids. Kind of data set: Evaluation of property of fluorescent dye being accumulated in phospholipids (labeling agent intensity / dye solution intensity). It counts as cell-based, Human. The settings on record: A431 cells, one hour; relative value, comparative compound 12 regarded as one; fluorescent wavelength range as in Table 22 (780-800 nm, 630-650 nm in last line). The protocol: <Evaluation of Property of Fluorescent Dye being Accumulated in Phospholipids>
The property of each dye being accumulated in phospholipids was calculated from the fluorescence intensity integral value obtained from the fluorescent spectrum of the dye solution and the fluorescence intensity obtained from the fluorescence intensity of the fluorescent labeling agent using an expression (1). The relative value of the property of each fluorescent labeling agent being accumulated in phospholipids when the property of the comparative compound 12 being accumulated in phospholipids was regarded as one was calculated and evaluated based on the following standards. In a case where the relative value is evaluated as 3 or more, it can be said that each fluorescent dye has a favorable property of being accumulated in phospholipids.
• 4: The property of being accumulated in phospholipids is 4 or more. • 3: The property of being accumulated in phospholipids is 2 or more and less than 4. • 2: The property of being accumulated in phospholipids is 1 or more and less than 2. • 1: The property of being accumulated in phospholipids is less than 1. Property of being accumulated in phospholipids=fluorescence intensity of fluorescent labeling agent/fluorescence intensity of dye solution (1)

Data set [3] concerns Human epithelium cancer cells A431. Kind of data set: Evaluation of fluorescence intensity of fluorescent labeling agent in labeled cells (plate reader). Type of data set: cell-based. The settings on record: one hour, FIG. 1, compared with fluorescent labeling agents 68 and 75. As for the experimental part:
Human epithelium cancer cells A431 were seeded in a 96-well plate (1×10^4 cells/well). Next, the A431 were cultured for 24 hours using an RPMI 1640 medium to which 10% fetal bovine serum (FBS) and 1% penicillin-streptomycin had been added in an incubator (37° C., 5% CO2-containing Air, humidified environment).
After cultivation, the medium was removed, and the fluorescent labeling agents prepared in Examples 127 to 167 and Comparative Examples 25 to 37 were added thereto and left to stand in the incubator for one hour. Next, these were washed in the RPMI 1640 medium. The fluorescence intensities were evaluated in fluorescence wavelength ranges shown in Table 22 using the plate reader (SPARK, manufactured by Tecan Trading AG).

As to `CCOc1cccc2c1C1=NC2=Nc2c3c(OCC)cccc3c3[n]2[Al]([O][Si](C)(C)CCCN)[n]2c(c4cccc(OCC)c4c2=NC2=NC(=N3)c3c(OCC)cccc32)=N1` [Fluorescent dye 1], the Cell visibility result in data set [1] is listed as “P”. For the same molecule, in data set [2], the Cell toxicity result is on record as “P (P (Pass): 0.8 or more)”. For the same molecule, in the data set with phospholipids, the “Property of being accumulated in phospholipids” value (“Property of being accumulated” below) was 4 (4: The property of being accumulated in phospholipids is 4 or more.). Also, the “fluorescence intensity of fluorescent labeling agent” value in data set [3] is “high fluorescence intensities”.

For the molecule `CCOc1cccc2c1C1=NC2=Nc2c3c(OCC)cccc3c3[n]2[Al]([O]P(=O)(CCC(=O)O)c2ccccc2)[n]2c(c4cccc(OCC)c4c2=NC2=NC(=N3)c3c(OCC)cccc32)=N1` (centres unmarked) [Fluorescent dye 15], the Cell visibility result in data set [1] is on record as “P”. Further, the Cell toxicity entry in data set [2] was “P (P (Pass): 0.8 or more)”. Further, the “Property of being accumulated” value in the data set with phospholipids was 4 (4: The property of being accumulated in phospholipids is 4 or more.). Also, the “fluorescence intensity of fluorescent labeling agent” value in data set [3] is on record as “high fluorescence intensities”.

As to `CCCCCCCCCCCCCCCCCCc1ccc2c(c1)C1=NC2=Nc2c3cc(CCCCCCCCCCCCCCCCCC)ccc3c3[n]2[Al]([O]S(=O)(=O)c2ccc(CCNC(=O)C(CC(=O)O)OC(C)=O)cc2)[n]2c(c4ccc(CCCCCCCCCCCCCCCCCC)cc4c2=NC2=NC(=N3)c3cc(CCCCCCCCCCCCCCCCCC)ccc32)=N1` (centres unmarked) [Fluorescent dye 28], in data set [1], the Cell visibility result is “P”. In addition, the Cell toxicity entry in data set [2] is “P (P (Pass): 0.8 or more)”. In the data set with phospholipids, the “Property of being accumulated” value is listed as 4 (4: The property of being accumulated in phospholipids is 4 or more.).

In the case of `CC(C)C(CC(=O)O)C(=O)NCCc1ccc(S(=O)(=O)[O][Al]2[n]3c4c5cc(C(C)(C)C)ccc5c3N=C3N=C(N=c5c6cc(C(C)(C)C)ccc6c([n]52)=NC2=NC(=N4)c4ccc(C(C)(C)C)cc42)c2ccc(C(C)(C)C)cc23)cc1` (centres unmarked) [Fluorescent dye 29], the Cell visibility result in data set [1] is reported as “P”. For the same molecule, in data set [2], the Cell toxicity entry is listed as “P (P (Pass): 0.8 or more)”. In addition, the “Property of being accumulated” value in the data set with phospholipids is on record as 4 (4: The property of being accumulated in phospholipids is 4 or more.).
